A word on the Ki: it is the equilibrium dissociation constant of an inhibitor or competing ligand from its target. Read a high Ki as lower affinity.

Here are results for 25 compounds from patent US10160744B2, “Quinoline compounds suitable for treating disorders that respond to the modulation of the serotonin 5-HT6 receptor” (Abbvie Deutschland GmbH & Co. KG, priority 2016, dated 2018).

Counter-ions that a name gives are not always drawn.

Series [1] in a line: Metabolic stability in human liver microsomes (microsomal clearance). It is filed as in vitro ADME. The following applies: pH 7.4; human liver microsomes 0.25 mg protein/mL, 0.5 μM compound, NADPH, 37° C.; read-out: mClint. How it is done: Samples of the tested compounds (0.5 μM) were preincubated together with human liver microsomes (0.25 mg of microsomal protein/mL) in 0.05 M potassium phosphate buffer of pH 7.4 in microtiter plates at 37° C. for 5 minutes. The reaction was started by adding NADPH (1.0 mM). After 0, 5, 10, 15, 20 and 30 minutes, an aliquot was removed, the reaction was cooled and stopped by adding twice the amount of quench solution consisting of acetonitrile/methanol 1:1, and containing 0.2 μM carbutamide as internal standard. The samples were frozen until analyzed. The remaining concentration of undegraded test substance was determined by liquid chromatography-tandem mass spectrometry (LC-MS/MS). The half-life (t1/2) was determined from the gradient of the ratio of the signal of (test substance/internal standard)/unit time plot, allowing the calculation of the half-life of the test substance, assuming first order kinetics, from the decrease in the concentration of the compound with time. The microsomal clearance (mClint) was calculated as follows: mClint=((ln(2)/t 1/2)/Microsomal Protein Concentration (mg/ml))*1000, leading to the unit of μL/min/mg.
For orientation: Liver microsomes are a subcellular fraction often used to study metabolism.

Another series has as its target T1, h-5-HT6 receptor (Homo sapiens, UniProt P50406).
T1 construct: expressed in transfected cells
Kind of series: 5-HT6 receptor binding assay (displacement of [3H]-LSD). The following applies: cloned human 5-HT6 receptor, HEK293 membranes, 1 nM [3H]-LSD. On the procedure: Displacement of radioligands binding to the following cloned human receptors
1. Preparation of Membranes by Ultrasonic Treatment and Differential Centrifugation
Cells from stable clonal cell lines expressing the corresponding receptor (5-HT6, α1-adrenergic, dopamine D2 or histamine H1 receptors) were washed with PBS (w/o Ca^++, Mg^++) and harvested in PBS with 0.02% EDTA. The cells were collected by centrifugation at 500 g for 10 min. at 4° C., washed with PBS and centrifuged (500 g, 10 min. 4° C.). The pellets were stored at −80° C. until use. For membrane preparation, the thawed cell pellet was resuspended in ice-cold sucrose buffer (0.25 M sucrose, 10 mM Hepes (pH 7.4), 1 mM Phenylmethylsulfonyl fluoride (PMSF) in DMSO, 5 μg/ml Pepstatin-A, 3 mM EDTA, 0.025% Bacitracin) and homogenized with a Branson Sonifier W-250 (Settings: Timer 4; Output Control 3; Duty Cycle constant; 2 to 3 cycles). Cell disruption was checked with the aid of a microscope. Remaining unbroken cells were pelleted at 1.000 g for 10 min. at 4° C. The sucrose buffer supernatant was then centrifuged at 60.000 g for 1 h at 4° C. (Beckman Ultrazentrifuge XL 80). The pellet was resuspended in 30 ml ice-cold Tris buffer (20 mM TRIS (pH 7.4), 5 μg/ml Pepstatin A, 0.1 mM PMSF, 3 mM EDTA) by pipetting through a 10 ml serological pipet and centrifuged for 1 h at 4° C. at 60.000 g. A final resuspension was performed in a small volume of ice-cold Tris buffer (see above) by pressing through a serological pipet followed by ultrasonic treatment with a Branson Sonifier W-250 (Settings: Timer 1; Output Control 3; Duty Cycle constant; 1 cycle). Protein concentration was determined (BCA-Kit; Pierce) and aliquots stored at −80° C. or in liquid nitrogen for long-term storage.
2. Receptor Binding Experiments
All receptor binding experiments were carried out in the corresponding assay buffer in a total volume of 200 μl in the presence of various concentrations of test compound (10^−5 M to 10^−9 M, tenfold serial dilution, duplicate determinations). The assays were terminated by filtration on polyethylenimine (PEI 0.1% or 0.3%) presoaked Packard Unifilter Plates (GF/C or GF/B) with a Tomtec MachIII U 96 well-plate harvester. After the plates had been dried for 2 h at 55° C. in a drying chamber scintillation cocktail (BetaPlate Scint; PerkinElmer) was added. Radioactivity was measured in a Microbeta Trilux two hours after the addition of the scintillation mixture. Data derived from liquid scintillation counting were analysed by iterative non-linear regression analysis with the use of the Statistical Analysis System (SAS): a program similar to “LIGAND” as described by Munson and Rodbard (Analytical Biochemistry 107, 220-239 (1980).
a) 5-HT6 Receptor Binding Assay
HEK293 cells stably expressing the h-5-HT6 receptor (NCBI Reference Sequence XM 001435) were cultured in RPMI1640 medium supplemented with 25 mM HEPES, 10% fetal calf serum and 1-2 mM glutamine. The membrane preparation was performed as described in section 1. […] Non-specific binding was defined with 1 μM methiothepin. The binding reaction was carried out for 3.5 h at room temperature. During the incubation, the plates were shaken on a plate shaker at 100 rpm and terminated by filtration on Packard Unifilter GF/C (0.1% PEI) plates, followed by 2 wash cycles with ice-cold 50 mM Tris-HCl, 5 mM CaCl2.
Data derived from liquid scintillation counting were analyzed by iterative non-linear regression analysis with the use of the Statistical Analysis System (SAS): a program similar to “LIGAND” as described by Munson and Rodbard (Anal. Biochem. 1980, 107, 220-239). Fitting was performed according to formulae described by Feldman (Anal. Biochem. 1972, 48, 317-338). IC50, nH and Ki values were expressed as geometrical mean.

T1 sequence (P50406 whole entry): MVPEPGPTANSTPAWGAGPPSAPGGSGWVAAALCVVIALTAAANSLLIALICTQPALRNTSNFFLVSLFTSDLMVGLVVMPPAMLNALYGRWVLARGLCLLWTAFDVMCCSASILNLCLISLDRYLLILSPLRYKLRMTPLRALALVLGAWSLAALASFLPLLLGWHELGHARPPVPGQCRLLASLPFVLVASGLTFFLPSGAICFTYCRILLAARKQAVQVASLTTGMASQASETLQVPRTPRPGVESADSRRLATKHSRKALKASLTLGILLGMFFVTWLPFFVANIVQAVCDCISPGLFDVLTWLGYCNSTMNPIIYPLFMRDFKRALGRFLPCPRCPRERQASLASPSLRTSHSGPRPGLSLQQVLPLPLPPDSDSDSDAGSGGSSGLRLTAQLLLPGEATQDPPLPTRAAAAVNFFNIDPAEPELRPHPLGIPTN

As to `O=S(=O)(c1cccc(C(F)(F)F)c1)c1cnc2c(N3CCC(O)CC3)cccc2c1` [Example 1, 1-[3-(3-Trifluoromethyl-benzenesulfonyl)-quinolin-8-yl]-piperidin-4-ol], the microsomal CLint at 0.5 μM in series [1] lay in the range of 30 to 60 µL/min/mg. For the same compound, the Ki at h-5-HT6 receptor was below 0.01 µM.

Turning to `O=S(=O)(c1cccc(C(F)(F)F)c1)c1cnc2c(N3CCC(O)C3)cccc2c1` (stereo not shown) [Example 2, 1-[3-(3-Trifluoromethyl-benzenesulfonyl)-quinolin-8-yl]-pyrrolidin-3-ol], in series [1], the microsomal CLint at 0.5 μM is 60 to 120 µL/min/mg. The compound further gave an inhibition constant (Ki) on h-5-HT6 receptor below 0.01 µM.

Take `O=C(O)C1CCN(c2cccc3cc(S(=O)(=O)c4cccc(C(F)(F)F)c4)cnc23)CC1` [Example 3, 1-[3-(3-Trifluoromethyl-benzenesulfonyl)-quinolin-8-yl]-piperidine-4-carboxylic Acid]: the microsomal CLint at 0.5 μM in series [1] is below 30 µL/min/mg. Moreover, at h-5-HT6 receptor, the Ki is below 0.01 µM.

On to `O=S(=O)(c1cccc(C(F)(F)F)c1)c1cnc2c(N3CCC[C@H](O)C3)cccc2c1` [Example 4, (S)-1-[3-(3-Trifluoromethyl-benzenesulfonyl)-quinolin-8-yl]-piperidin-3-ol Hydrochloride], for which the microsomal CLint at 0.5 μM in series [1] was 60 to 120 µL/min/mg. The compound also displayed an inhibition constant Ki at h-5-HT6 receptor below 0.01 µM.

As to `O=S(=O)(c1cccc(C(F)(F)F)c1)c1cnc2c(N3CCC[C@@H](O)C3)cccc2c1` [Example 5, (R)-1-[3-(3-Trifluoromethyl-benzenesulfonyl)-quinolin-8-yl]-piperidin-3-ol], in series [1], the microsomal CLint at 0.5 μM fell in the range of 60 to 120 µL/min/mg. In addition, the inhibition constant Ki on h-5-HT6 receptor is below 0.01 µM.

Consider `O=C(O)C1CCCN(c2cccc3cc(S(=O)(=O)c4cccc(C(F)(F)F)c4)cnc23)C1` (stereo not shown) [Example 6, 1-[3-(3-Trifluoromethyl-benzenesulfonyl)-quinolin-8-yl]-piperidine-3-carboxylic Acid], for which the microsomal CLint at 0.5 μM in series [1] was below 30 µL/min/mg. This compound also gave a Ki on h-5-HT6 receptor of 0.01 to 0.1 µM.

As for `O=C(O)[C@H]1CCN(c2cccc3cc(S(=O)(=O)c4cccc(C(F)(F)F)c4)cnc23)C1` [Example 11, (3S)-1-[3-[3-(Trifluoromethyl)phenyl]sulfonyl-8-quinolyl]pyrrolidine-3-carboxylic Acid], on h-5-HT6 receptor, the Ki was 0.01 to 0.1 µM.

For `COc1cccc(S(=O)(=O)c2cnc3c(N4CC(O)C4)cccc3c2)c1` [Example 14, 1-[3-(3-Methoxyphenyl)sulfonyl-8-quinolyl]azetidin-3-ol], on h-5-HT6 receptor, the Ki fell in the range of 0.01 to 0.1 µM.

In turn, `O=S(=O)(c1cnc2c(F)cccc2c1)c1ccccc1N1CCC(O)CC1` [Example 25, 1-[2-[(8-Fluoro-3-quinolyl)sulfonyl]phenyl]piperidin-4-ol] had an inhibitory constant (Ki) at h-5-HT6 receptor of 0.01 to 0.1 µM.

In turn, `O=S(=O)(c1cccc(F)c1)c1cnc2c(N3CC[C@H](O)C3)cccc2c1` [Example 26, (3S)-1-[3-(3-Fluorophenyl)sulfonyl-8-quinolyl]pyrrolidin-3-ol] displayed an inhibition constant (Ki) on h-5-HT6 receptor below 0.01 µM.

In turn, `COc1ccc(C)cc1S(=O)(=O)c1cnc2c(N3CCC(O)CC3)cccc2c1` [Example 35, 1-[3-(2-Methoxy-5-methyl-phenyl)sulfonyl-8-quinolyl]piperidin-4-ol] yielded a Ki on h-5-HT6 receptor of 0.01 to 0.1 µM.

Take `O=S(=O)(c1cnc2c(F)cccc2c1)c1ccccc1N1CC(O)C1` [Example 38, 1-[2-[(8-Fluoro-3-quinolyl)sulfonyl]phenyl]azetidin-3-ol]: on h-5-HT6 receptor, the Ki was in the range of 0.1 to 0.5 µM.

Regarding `COc1ccc(C)cc1S(=O)(=O)c1cnc2c(N3CC(O)C3)cccc2c1` [Example 40, 1-[3-(2-Methoxy-5-methyl-phenyl)sulfonyl-8-quinolyl]azetidin-3-ol], at h-5-HT6 receptor, the Ki was 0.01 to 0.1 µM.

Consider `NC(=O)C1CCCN(c2cccc3cc(S(=O)(=O)c4cccc(C(F)(F)F)c4)cnc23)C1` (stereo not shown) [Example 46, 1-[3-(3-Trifluoromethyl-benzenesulfonyl)-quinolin-8-yl]-piperidine-3-carboxylic Acid Amide], for which the Ki at h-5-HT6 receptor is below 0.01 µM.

With `N#Cc1cccc(S(=O)(=O)c2cnc3c(N4CCC(C(=O)O)CC4)cccc3c2)c1` [Example 47, 1-[3-(3-Cyanophenyl)sulfonyl-8-quinolyl]piperidine-4-carboxylic Acid], the microsomal CLint at 0.5 μM in series [1] was below 30 µL/min/mg.

For the compound `O=C(O)c1cccc(S(=O)(=O)c2cnc3c(N4CCC(C(=O)O)CC4)cccc3c2)c1` [Example 49, 1-[3-(3-Carboxyphenyl)sulfonyl-8-quinolyl]piperidine-4-carboxylic Acid], the microsomal CLint at 0.5 μM in series [1] was below 30 µL/min/mg.

In the case of `Cc1cccc(S(=O)(=O)c2cnc3c(N4CCC(C(=O)O)CC4)cccc3c2)c1` [Example 50, 1-[3-(m-Tolylsulfonyl)-8-quinolyl]piperidine-4-carboxylic Acid], the microsomal CLint at 0.5 μM in series [1] was below 30 µL/min/mg.

With `O=C(O)C1CCN(c2cccc3cc(S(=O)(=O)c4cccc(OC(F)(F)F)c4)cnc23)CC1` [Example 51, 1-[3-[3-(Trifluoromethoxy)phenyl]sulfonyl-8-quinolyl]piperidine-4-carboxylic Acid], the microsomal CLint at 0.5 μM in series [1] was in the range of 30 to 60 µL/min/mg.

`O=C(O)C1CCN(c2cccc3cc(S(=O)(=O)c4cccc(F)c4)cnc23)CC1` [Example 52, 1-[3-(3-Fluorophenyl)sulfonyl-8-quinolyl]piperidine-4-carboxylic Acid]: in series [1], the microsomal CLint at 0.5 μM lay within 30 to 60 µL/min/mg.

Regarding `O=C(O)C1CCN(c2cccc3cc(S(=O)(=O)c4cccc(N5CCCC5)c4)cnc23)CC1` [Example 53, 1-[3-(3-Pyrrolidin-1-ylphenyl)sulfonyl-8-quinolyl]piperidine-4-carboxylic Acid], in series [1], the microsomal CLint at 0.5 μM was 30 to 60 µL/min/mg.

With `COC1CCN(c2cccc(S(=O)(=O)c3cnc4c(N5CCC(C(=O)O)CC5)cccc4c3)c2)C1` (stereo not shown) [Example 54, 1-[3-[3-(3-Methoxypyrrolidin-1-yl)phenyl]sulfonyl-8-quinolyl]piperidine-4-carboxylic Acid], in series [1], the microsomal CLint at 0.5 μM is below 30 µL/min/mg.

`O=C(O)C1CCN(c2cccc3cc(S(=O)(=O)c4cccc(N5CCNCC5)c4)cnc23)CC1` [Example 55, 1-[3-(3-Piperazin-1-ylphenyl)sulfonyl-8-quinolyl]piperidine-4-carboxylic Acid]: the microsomal CLint at 0.5 μM in series [1] is below 30 µL/min/mg.

Turning to `CN1CCN(c2cccc(S(=O)(=O)c3cnc4c(N5CCC(C(=O)O)CC5)cccc4c3)c2)CC1` [Example 56, 1-[3-[3-(4-Methylpiperazin-1-yl)phenyl]sulfonyl-8-quinolyl]piperidine-4-carboxylic Acid], the microsomal CLint at 0.5 μM in series [1] is below 30 µL/min/mg.

As to `O=C(O)CC1CCN(c2cccc3cc(S(=O)(=O)c4cccc(C(F)(F)F)c4)cnc23)CC1` [Example 57, 2-[1-[3-[3-(Trifluoromethyl)phenyl]sulfonyl-8-quinolyl]-4-piperidyl]acetic Acid], the microsomal CLint at 0.5 μM in series [1] was below 30 µL/min/mg.

Take `O=C(O)CC1CCCN(c2cccc3cc(S(=O)(=O)c4cccc(C(F)(F)F)c4)cnc23)C1` (stereo not shown) [Example 58, 2-[1-[3-[3-(Trifluoromethyl)phenyl]sulfonyl-8-quinolyl]-3-piperidyl]acetic Acid]: the microsomal CLint at 0.5 μM in series [1] lay in the range of 30 to 60 µL/min/mg.
